Source: PubChem BioAssay (NCI)
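Test compounds were applied to cells in 96-well plates for 48 hours at 5 doses. At the GI50, growth is halved. The concentration for full growth arrest is given as TGI.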

What was measured:
Test in all cases: NCI anticancer screen, dose series, 48 h
[1] = test system: CCRF-CEM leukemia
[2] = test system: MALME-3M melanoma
[3] = test system: MCF7 breast
[4] = test system: MDA-MB-231 breast
[5] = test system: MDA-MB-435
[6] = test system: SF-295 CNS
[7] = test system: SK-MEL-28 melanoma
[8] = test system: SK-OV-3 ovarian
[9] = test system: SR leukemia
[10] = test system: T-47D breast

| Structure (SMILES) | TGI [1] [µM] | TGI [2] [µM] | TGI [3] [µM] | TGI [4] [µM] | TGI [5] [µM] | TGI [6] [µM] | TGI [7] [µM] | TGI [8] [µM] | TGI [9] [µM] | TGI [10] [µM] | GI50 [1] [µM] | GI50 [2] [µM] | GI50 [3] [µM] | GI50 [4] [µM] | GI50 [5] [µM] | GI50 [6] [µM] | GI50 [7] [µM] | GI50 [8] [µM] | GI50 [9] [µM] | GI50 [10] [µM] |
| --- | --- | --- | --- | --- | --- | --- | --- | --- | --- | --- | --- | --- | --- | --- | --- | --- | --- | --- | --- | --- |
| Cc1nc(C)c(N2CCNCC2)c(=O)[nH]1 | > 100 | > 100 | > 100 | > 100 | > 100 | > 100 | > 100 | > 100 | > 100 | > 100 |  |  |  |  |  |  |  |  |  |  |
| CC(C)=CCC/C(C)=C/COc1c2ccoc2cc2oc(=O)ccc12 | 50.2 | 99.6 | 61.4 | 86.5 | > 100 | 75.3 | > 100 | 82.6 | 43.1 | > 100 |  |  |  |  |  |  |  |  |  |  |
| COC1=CC(=O)CC(C)C12Oc1c(Cl)c(OC)cc(OC)c1C2=O (stereo not drawn) | 98.3 | > 100 | > 100 | 32.5 | 6.42 | 57.3 | > 100 | > 100 | > 28.2 | > 100 |  |  |  |  |  |  |  |  |  |  |
| C[C@@H]1C(=O)C[C@H]2C(C)(C)CCC[C@]2(C)[C@@]1(O)CCc1ccoc1 | > 100 | > 100 | > 100 | > 100 | > 100 | > 100 | > 100 | > 100 | > 100 | > 100 |  |  |  |  |  |  |  |  |  |  |
| Nc1ncn2c(n1)nc1ccccc12 | > 100 | > 100 | > 100 | > 100 | > 100 | > 100 | > 100 | > 100 | > 100 | > 100 |  |  |  |  |  |  |  |  |  |  |
| Cc1cc(S(=O)(=O)Nc2nc3ccccc3nc2-c2ccc(Cl)cc2)c(S)cc1Cl | 58.1 | 41.4 | 34.1 | 54 | 34.5 | 35 | 31 | 31.1 | 37.8 | 32.8 |  |  |  |  |  |  |  |  |  |  |
| Cc1c(N=Nc2ccccc2)c(C)n(C2OC(CO)C(O)C(O)C2O)c(=S)c1C#N (stereo not drawn) | > 100 | > 100 | > 100 | > 100 | 71.4 | > 100 | > 100 | > 100 | 87.7 | 95.8 |  |  |  |  |  |  |  |  |  |  |
| O=c1[nH]cc(Cl)c(=O)[nH]1 | > 100 | > 100 | > 100 | > 100 | > 100 | > 100 | > 100 | > 100 | > 100 | > 100 |  |  |  |  |  |  |  |  |  |  |
| Cc1cc(S(=O)(=O)Nc2nnc3cnc4ccccc4n23)c(S)cc1Cl | > 100 | > 100 | > 100 | > 100 | > 100 | > 100 | > 100 | > 100 | > 100 | > 100 |  |  |  |  |  |  |  |  |  |  |
| Cc1csc2c1-n1cccc1C2=O | > 100 | > 100 | > 100 | > 100 | > 100 | > 100 | > 100 | > 100 | > 100 | > 100 |  |  |  |  |  |  |  |  |  |  |
| COC1=CC2(CC(OC)=C1OC)OC21COc2ccccc2C1=O (stereo not drawn) | > 100 | > 100 | > 100 | > 100 | > 100 | > 100 | > 100 | > 100 | 89.7 | > 100 |  |  |  |  |  |  |  |  |  |  |
| CC(=O)Oc1c(-c2ccccc2)sc2ccccc12 | 37 | 37.2 | 56.4 | 33.4 | 59 | 40.3 | 53.1 |  | 29.4 | 44.5 |  |  |  |  |  |  |  |  |  |  |
| O=C(Nc1cccc([N+](=O)[O-])c1)c1n[nH]n(-c2cccc([N+](=O)[O-])c2)c1=O | > 100 | > 100 | > 100 | > 100 | > 100 | > 100 | > 100 | > 100 | > 100 | > 100 |  |  |  |  |  |  |  |  |  |  |
| COc1cc(OC)cc(-c2n/c(=C\c3c(O)[nH]c4ccc(OC)cc34)cc3c2=Nc2ccccc2-3)c1 | 12.2 | 5.42 | 3.41 | 3.26 | 29.3 | 34 | 33.4 | 53.3 | 10.6 | 75.8 | 2.78 | 2.27 | 1.4 | 1.56 | 4.12 | 14.4 | 13.5 | 25.8 | 2.76 | 24.6 |
| CSc1ccn(C2CC(F)C(CO)O2)c(=O)n1 (stereo not drawn) | > 100 | > 100 | > 100 | > 100 | > 100 | > 100 |  | > 100 | > 100 | > 100 |  |  |  |  |  |  |  |  |  |  |
| Cc1ccc(-c2nc(N/N=C/c3ccc(O)cc3)c3ccccc3n2)cc1 | > 100 | 29.4 | 26.2 | 91.5 | 48.2 | 89.5 | 81.5 | > 100 | > 100 | 26 |  |  |  |  |  |  |  |  |  |  |
